Source: US20190119348A1, “PARATHYROID HORMONE RECEPTOR 1 ANTAGONIST AND INVERSE AGONIST POLYPEPTIDES AND METHODS OF THEIR USE” (The General Hospital Corporation, priority 2016, published 2019)
Like-named read-outs stand apart in the source and are kept apart here. Where a SMILES comes first, the peptide text is derived from it. [ ]: non-standard residue; d: D form. Nle = CCCC[C@H](N)C(=O)O

Target: T1, endogenous hPTHR1 (Homo sapiens, UniProt Q03431)
T1 construct: Saos-2, in which is endogenously expressed the hPTHR1; endogenous in cells
T1 sequence (Q03431 27-593): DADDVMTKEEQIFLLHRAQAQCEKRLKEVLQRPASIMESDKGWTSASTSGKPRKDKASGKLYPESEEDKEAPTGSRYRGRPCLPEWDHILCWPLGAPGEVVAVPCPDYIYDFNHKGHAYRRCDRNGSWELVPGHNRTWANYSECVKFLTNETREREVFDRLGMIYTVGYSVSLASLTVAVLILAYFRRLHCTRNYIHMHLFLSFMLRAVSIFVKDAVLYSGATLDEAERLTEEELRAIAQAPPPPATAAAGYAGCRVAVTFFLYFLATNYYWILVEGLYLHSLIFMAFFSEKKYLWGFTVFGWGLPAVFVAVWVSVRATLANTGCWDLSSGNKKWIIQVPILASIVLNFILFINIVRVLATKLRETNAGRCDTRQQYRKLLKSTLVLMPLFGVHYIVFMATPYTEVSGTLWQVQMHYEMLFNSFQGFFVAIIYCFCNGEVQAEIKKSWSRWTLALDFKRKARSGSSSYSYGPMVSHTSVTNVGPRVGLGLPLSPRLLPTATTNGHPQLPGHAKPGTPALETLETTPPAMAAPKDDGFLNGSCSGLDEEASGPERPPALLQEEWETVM
Test: Antagonism of PTH(1-34)- and PTHrP(1-36)-induced cAMP response (GloSensor) in SGS-72 cells
Assay type: cell-based
Outline: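 SaOS2-derived SGS-72 cells, which express endogenous hPTHR1 and a stable GloSensor cAMP reporter, were loaded with 0.5 mM luciferin for 15 min at room temperature in CO2-independent medium with 0.1% BSA. Antagonist was tested against PTH(1-34) or PTHrP(1-36), with luminescence taken at the agonist-alone maximum; pIC50 came from four-parameter fits.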

[1] = IC50 PTH(1-34) (Table 6, nanomolar value), antagonist pre-treatment 15 minutes, PTH(1-34) 0.3 nM

| Structure (SMILES) | IC50 [1] | further results |
| --- | --- | --- |
| CCCC[C@H](NC(=O)[C@@H](N)CC(C)C)C(=O)N[C@@H](Cc1c[nH]cn1)C(=O)N[C@@H](CCC(N)=O)C(=O)N[C@@H](CCCNC(=N)N)C(=O)N[C@H](Cc1c[nH]c2ccccc12)C(=O)N[C@@H](CCCCN)C(=O)N[C@@H](Cc1c[nH]c2ccccc12)C(=O)N[C@H](C(=O)N[C@@H](CCC(N)=O)C(=O)N[C@@H](CC(=O)O)C(=O)N[C@@H](C)C(=O)N[C@@H](CCCNC(=N)N)C(=O)N[C@@H](CCCNC(=N)N)C(=O)N[C@@H](CCCNC(=N)N)C(=O)N[C@@H](C)C(=O)N[C@@H](Cc1c[nH]c2ccccc12)C(=O)N[C@@H](CC(C)C)C(=O)N[C@@H](Cc1c[nH]cn1)C(=O)N[C@@H](CCCCN)C(=O)N[C@@H](CC(C)C)C(=O)N[C@H](C(=O)N[C@@H](C)C(=O)N[C@@H](CCC(=O)O)C(=O)N[C@H](C(=O)N[C@@H](Cc1c[nH]cn1)C(=O)N[C@H](C(=O)N[C@@H](C)C(=O)N[C@@H](CCC(=O)O)C(=O)N[C@H](C(N)=O)[C@@H](C)CC)[C@@H](C)O)[C@@H](C)CC)[C@@H](C)CC)[C@@H](C)CC [compound 1992, Nle8, dW12, W23-LA-PTH(7-36)-1992] (H-L[Nle]HQR[dW]KWIQDARRRAWLHKLIAEIHTAEI-NH2; N-terminus assumed) | 1.55 nM |  |
| CCCC[C@H](NC(=O)[C@H](CC(C)C)NC(=O)[C@H](CCC(N)=O)NC(=O)[C@@H](N)[C@@H](C)CC)C(=O)N[C@@H](Cc1c[nH]cn1)C(=O)N[C@@H](CCC(N)=O)C(=O)N[C@@H](CC(C)C)C(=O)N[C@H](Cc1c[nH]c2ccccc12)C(=O)N[C@@H](CCCCN)C(=O)N[C@@H](Cc1c[nH]c2ccccc12)C(=O)N[C@H](C(=O)N[C@@H](CCC(N)=O)C(=O)N[C@@H](CC(=O)O)C(=O)N[C@@H](C)C(=O)N[C@@H](CCCNC(=N)N)C(=O)N[C@@H](CCCNC(=N)N)C(=O)N[C@@H](CCCNC(=N)N)C(=O)N[C@@H](C)C(=O)N[C@@H](Cc1c[nH]c2ccccc12)C(=O)N[C@@H](CC(C)C)C(=O)N[C@@H](Cc1c[nH]cn1)C(=O)N[C@@H](CCCCN)C(=O)N[C@@H](CC(C)C)C(=O)N[C@H](C(=O)N[C@@H](C)C(=O)N[C@@H](CCC(=O)O)C(=O)N[C@H](C(=O)N[C@@H](Cc1c[nH]cn1)C(=O)N[C@H](C(=O)N[C@@H](C)C(=O)N[C@@H](CCC(=O)O)C(=O)N[C@H](C(N)=O)[C@@H](C)CC)[C@@H](C)O)[C@@H](C)CC)[C@@H](C)CC)[C@@H](C)CC [compound 1999, Nle8, L11, dW12, W23-LA-PTH(5-36)-1999] (H-IQL[Nle]HQL[dW]KWIQDARRRAWLHKLIAEIHTAEI-NH2; N-terminus assumed) | 2.75 nM |  |
| CC[C@H](C)[C@H](NC(=O)[C@H](CCC(=O)O)NC(=O)[C@H](C)NC(=O)[C@@H](NC(=O)[C@H](Cc1c[nH]cn1)NC(=O)[C@@H](NC(=O)[C@H](CCC(=O)O)NC(=O)[C@H](C)NC(=O)[C@@H](NC(=O)[C@H](CC(C)C)NC(=O)[C@H](CCCCN)NC(=O)[C@H](Cc1c[nH]cn1)NC(=O)[C@H](CC(C)C)NC(=O)[C@H](Cc1c[nH]c2ccccc12)NC(=O)[C@H](C)NC(=O)[C@H](CCCNC(=N)N)NC(=O)[C@H](CCCNC(=N)N)NC(=O)[C@H](CCCNC(=N)N)NC(=O)[C@H](C)NC(=O)[C@H](CC(=O)O)NC(=O)[C@H](CCC(N)=O)NC(=O)[C@@H](NC(=O)[C@H](Cc1c[nH]c2ccccc12)NC(=O)[C@H](CCCCN)NC(=O)[C@@H](Cc1c[nH]c2ccccc12)NC(=O)[C@H](CC(C)C)NC(=O)[C@H](CCC(N)=O)NC(=O)[C@H](Cc1c[nH]cn1)NC(=O)[C@H](CCSC)NC(=O)[C@@H](N)CC(C)C)[C@@H](C)CC)[C@@H](C)CC)[C@@H](C)CC)[C@@H](C)O)C(N)=O [compound 2001, L11, dW12, W23-LA-PTH(7-36)-2001] (H-LMHQL[dW]KWIQDARRRAWLHKLIAEIHTAEI-NH2; N-terminus assumed) | 2.08 nM |  |

More lines, main results first:

| IC50 [1] | Structure (SMILES) | further results |
| --- | --- | --- |
| 1.45 nM | CC[C@H](C)[C@H](N)C(=O)N[C@@H](CCC(N)=O)C(=O)N[C@@H](CC(C)C)C(=O)N[C@@H](CCSC)C(=O)N[C@@H](Cc1c[nH]cn1)C(=O)N[C@@H](CCC(N)=O)C(=O)N[C@@H](CCCNC(=N)N)C(=O)N[C@H](Cc1c[nH]c2ccccc12)C(=O)N[C@@H](CCCCN)C(=O)N[C@@H](Cc1c[nH]c2ccccc12)C(=O)N[C@H](C(=O)N[C@@H](CCC(N)=O)C(=O)N[C@@H](CC(=O)O)C(=O)N[C@@H](C)C(=O)N[C@@H](CCCNC(=N)N)C(=O)N[C@@H](CCCNC(=N)N)C(=O)N[C@@H](CCCNC(=N)N)C(=O)N[C@@H](C)C(=O)N[C@@H](Cc1c[nH]c2ccccc12)C(=O)N[C@@H](CC(C)C)C(=O)N[C@@H](Cc1c[nH]cn1)C(=O)N[C@@H](CCCCN)C(=O)N[C@@H](CC(C)C)C(=O)N[C@H](C(=O)N[C@@H](C)C(=O)N[C@@H](CCC(=O)O)C(=O)N[C@H](C(=O)N[C@@H](Cc1c[nH]cn1)C(=O)N[C@H](C(=O)N[C@@H](C)C(=O)N[C@@H](CCC(=O)O)C(=O)N[C@H](C(N)=O)[C@@H](C)CC)[C@@H](C)O)[C@@H](C)CC)[C@@H](C)CC)[C@@H](C)CC [compound 1949, dW12, W23-LA-PTH(5-36)] (H-IQLMHQR[dW]KWIQDARRRAWLHKLIAEIHTAEI-NH2; N-terminus assumed) | IC50 (antagonist pre-treatment 10 minutes, PTHrP(1-36) 0.3 nM, seven experiments, read-out: corresponding nanomolar value vs. PTHrP(1-36) (Table 5)): 1 nM; IC50 (antagonist pre-treatment 10 minutes, PTHrP(1-36) 0.3 nM, seven experiments, read-out: pIC50 vs. PTHrP(1-36) (Table 5) (converted)): 0.794 nM; IC50 (antagonist pre-treatment 15 minutes, PTHrP(1-36) 0.3 nM, read-out: IC50 PTHrP(1-36) (Table 6, nanomolar value)): 1.21 nM; IC50 (corresponding nanomolar value vs. PTH(1-34) (Table 5), antagonist pre-treatment 10 minutes, PTH(1-34) 0.3 nM, seven experiments): 1 nM; IC50 (pIC50 vs. PTH(1-34) (Table 5), antagonist pre-treatment 10 minutes, PTH(1-34) 0.3 nM, seven experiments): 0.776 nM |
| 1.23 nM | CC[C@H](C)[C@H](NC(=O)[C@H](CCC(=O)O)NC(=O)[C@H](C)NC(=O)[C@@H](NC(=O)[C@H](Cc1c[nH]cn1)NC(=O)[C@@H](NC(=O)[C@H](CCC(=O)O)NC(=O)[C@H](C)NC(=O)[C@@H](NC(=O)[C@H](CC(C)C)NC(=O)[C@H](CCCCN)NC(=O)[C@H](Cc1c[nH]cn1)NC(=O)[C@H](CC(C)C)NC(=O)[C@H](Cc1c[nH]c2ccccc12)NC(=O)[C@H](C)NC(=O)[C@H](CCCNC(=N)N)NC(=O)[C@H](CCCNC(=N)N)NC(=O)[C@H](CCCNC(=N)N)NC(=O)[C@H](C)NC(=O)[C@H](CC(=O)O)NC(=O)[C@H](CCC(N)=O)NC(=O)[C@@H](NC(=O)[C@H](Cc1c[nH]c2ccccc12)NC(=O)[C@H](CCCCN)NC(=O)[C@@H](Cc1c[nH]c2ccccc12)NC(=O)[C@H](CCCNC(=N)N)NC(=O)[C@H](CCC(N)=O)NC(=O)[C@H](Cc1c[nH]cn1)NC(=O)[C@H](CCSC)NC(=O)[C@@H](N)CC(C)C)[C@@H](C)CC)[C@@H](C)CC)[C@@H](C)CC)[C@@H](C)O)C(N)=O [compound 1990, dW12, W23-LA-PTH(7-36)-1990] (H-LMHQR[dW]KWIQDARRRAWLHKLIAEIHTAEI-NH2; N-terminus assumed) |  |
| 2.1 nM | CCCC[C@H](NC(=O)[C@@H](N)CC(C)C)C(=O)N[C@@H](Cc1c[nH]cn1)C(=O)N[C@@H](CCC(N)=O)C(=O)N[C@@H](CC(C)C)C(=O)N[C@H](Cc1c[nH]c2ccccc12)C(=O)N[C@@H](CCCCN)C(=O)N[C@@H](Cc1c[nH]c2ccccc12)C(=O)N[C@H](C(=O)N[C@@H](CCC(N)=O)C(=O)N[C@@H](CC(=O)O)C(=O)N[C@@H](C)C(=O)N[C@@H](CCCNC(=N)N)C(=O)N[C@@H](CCCNC(=N)N)C(=O)N[C@@H](CCCNC(=N)N)C(=O)N[C@@H](C)C(=O)N[C@@H](Cc1c[nH]c2ccccc12)C(=O)N[C@@H](CC(C)C)C(=O)N[C@@H](Cc1c[nH]cn1)C(=O)N[C@@H](CCCCN)C(=O)N[C@@H](CC(C)C)C(=O)N[C@H](C(=O)N[C@@H](C)C(=O)N[C@@H](CCC(=O)O)C(=O)N[C@H](C(=O)N[C@@H](Cc1c[nH]cn1)C(=O)N[C@H](C(=O)N[C@@H](C)C(=O)N[C@@H](CCC(=O)O)C(=O)N[C@H](C(N)=O)[C@@H](C)CC)[C@@H](C)O)[C@@H](C)CC)[C@@H](C)CC)[C@@H](C)CC [compound 1997, Nle8,L11, dW12, W23-LA-PTH(7-36)-1997] (H-L[Nle]HQL[dW]KWIQDARRRAWLHKLIAEIHTAEI-NH2; N-terminus assumed) |  |
